The source of these data is ChEMBL document CHEMBL1201862, “PubChem BioAssay data set” (2004).

What all share (assay): growth of human tumour cells (NCI), 48 h
Assay [1] concerns UACC-257.
For assay [2], the system named is MDA-MB-435.
In assay [3] the test system is OVCAR-5.
In assay [4] the test system is BT-549.
Assay [5] deals with NCI-H522.
Assay [6] has as its system MDA-N.
Assay [7] relates to HCT-15.
Assay [8] relates to EKVX.
In assay [9] the test system is SN12C.
Assay [10] has as its system SW-620.
For assay [11], the system named is UACC-62.
Assay [12] concerns Malme-3M.
The subject of assay [13] is MDA-MB-231.
In assay [14] the test system is 786-0.
In assay [15] the test system is KM12.
Assay [16] concerns NCI-H23.
For assay [17], the system named is SK-MEL-5.
Assay [18] concerns M14.
Assay [19] deals with IGROV-1.
The subject of assay [20] is LOX IMVI.

The structures appear in SMILES notation.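 Step 1: Grow cells in 96-well plates. Step 2: Expose to compound for 48 hours at 5 concentrations. Step 3: Interpolate endpoints linearly; if unreached, use highest concentration. At the GI50, growth is halved.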 Active and inactive are the calls of the source. Rule as the data show it: active = GI50 up to about 1.1 µM and inactive = higher. Where only a bound is given, the exact number is not on record here.

As for `CCOC(=O)C(NC(=O)c1ccco1)(Nc1nc2ccc(OCC)cc2s1)C(F)(F)F` (stereo unspecified), the GI50 is 28.4 µM (inactive) in assay [1]; 24.4 µM (inactive) in assay [2]; 34.1 µM (inactive) in assay [3]; 28.6 µM (inactive) in assay [4]; 21.2 µM (inactive) in assay [5]; 21.6 µM (inactive) in assay [6]. Further, the GI50 was 22.9 µM in assay [7]; 32.8 µM (inactive) in [8]; 37.9 µM (inactive) in assay [9]; 61.5 µM (inactive) in [10]; 35.6 µM (inactive) in assay [11]; 37.2 µM (inactive) in [12]. Also, the GI50 was 55.3 µM (inactive) in assay [13]; 21.7 µM (inactive) in assay [14]; 21.8 µM (inactive) in assay [15]; 27.3 µM (inactive) in [16]; 19.4 µM (inactive) in assay [17]; 32.6 µM (inactive) in assay [18].

On to `C[C@]12OC[C@H](c3ccccc3)N1C(=O)C1[C@H]2CC12SCCS2` (stereo partly specified), for which the GI50 in assay [19], in [1], in [2], in assay [3], in assay [4] and in assay [5] was > 100 µM (inactive) throughout. Also, the GI50 is > 100 µM (inactive) in assay [6]; greater than 100 µM in [7]; > 100 µM (inactive) in [8]; > 100 µM (inactive) in assay [9]; > 100 µM (inactive) in assay [10]; > 100 µM (inactive) in assay [11]. The GI50 in assay [12], in assay [13], in assay [14], in assay [15], in [16] and in assay [17] was > 100 µM (inactive) each time. The GI50 in [18] was > 100 µM (inactive).

As for `Oc1ccc2ccccc2c1NCn1nc(CCCCCCCCc2nn(CNc3c(O)ccc4ccccc34)c(=S)o2)oc1=S`, the GI50 in assay [19] was 6.7 µM (inactive); in [1], > 100 µM (inactive); in [2], 38.7 µM (inactive); in assay [3], > 100 µM (inactive); in assay [4], > 100 µM (inactive); in assay [5], 35.1 µM (inactive). Also, the GI50 in assay [6] is 37.6 µM (inactive); in assay [7], 43.1 µM; in [8] it was > 100 µM (inactive); in [9], > 100 µM (inactive); in assay [10] it was > 100 µM (inactive); in assay [11], > 100 µM (inactive). Further, the GI50 in assay [12] was > 100 µM (inactive); in assay [13], > 100 µM (inactive); in assay [14], > 100 µM (inactive); in assay [15], 28.9 µM (inactive); in [16], > 100 µM (inactive); in assay [17] it was 44.5 µM (inactive). Moreover, the GI50 in assay [18] was 44.8 µM (inactive).

As for `CC(=O)c1cccc(Nc2nc3ccc(Cl)cc3c3[nH]c4ccccc4c23)c1`, the GI50 in assay [19] is 4.16 µM (inactive); in [1], 13.4 µM (inactive); in [2], 7.26 µM (inactive); in assay [3], 5.79 µM (inactive); in assay [4] it was 64.1 µM (inactive); in assay [5], 2.8 µM (inactive). For the same compound, the GI50 in [6] was 7.74 µM (inactive); in assay [7], 6.08 µM; in assay [8], 3.54 µM (inactive); in assay [9] it was 13.1 µM (inactive); in assay [10], 4.35 µM (inactive); in assay [11] it was 2.19 µM (inactive). Also, the GI50 in assay [12] was 4.95 µM (inactive); in assay [13], 11.6 µM (inactive); in [14] it was 1.85 µM (inactive); in assay [15], 4.94 µM (inactive); in [16] it was 12.8 µM (inactive); in assay [17], 1.44 µM (inactive). Besides, the GI50 in [18] was 11 µM (inactive).

With `CC1=CC2C(O1)C1C(=O)C=CC(=O)C1=CC2[N+](=O)[O-]` (stereo unspecified), the GI50 is 16.6 µM (inactive) in assay [20]; 17.9 µM (inactive) in assay [19]; 16.9 µM (inactive) in assay [1]; 12.2 µM (inactive) in assay [2]; 24.5 µM (inactive) in [3]; 15.8 µM (inactive) in assay [4]. Further, the GI50 in [5] was 1.71 µM (inactive); in assay [6], 23.1 µM (inactive); in [7], 19.1 µM; in assay [8], 14.6 µM (inactive); in [9], 18.1 µM (inactive); in assay [10] it was 3.61 µM (inactive). Further, the GI50 in assay [11] was 18.6 µM (inactive); in assay [13] it was 19.8 µM (inactive); in [14], 12.3 µM (inactive); in assay [15], 24.3 µM (inactive); in assay [16] it was 19.9 µM (inactive); in [17] it was 17.5 µM (inactive). Moreover, in [18], the GI50 was 14 µM (inactive).

As for `C/C1=C\CC[C@@]2(C)O[C@@H]2C[C@@H]2[C@H](C/C(C)=C/CC1)OC(=O)C21CC1`, the GI50 in assay [19] is 23.3 µM (inactive); in [1], > 100 µM (inactive); in [2], 41.5 µM (inactive); in assay [3], > 100 µM (inactive); in assay [4] it was 44.9 µM (inactive); in [6] it was 91.4 µM (inactive). For the same compound, the GI50 in assay [7] is 27.7 µM; in assay [8], > 100 µM (inactive); in assay [9], 60.3 µM (inactive); in assay [10], 60.7 µM (inactive); in [11], 90.8 µM (inactive); in [12], > 100 µM (inactive). For the same compound, the GI50 was > 100 µM (inactive) in assay [13]; 74.5 µM (inactive) in assay [14]; > 100 µM (inactive) in assay [15]; 93.5 µM (inactive) in assay [17]; > 100 µM (inactive) in assay [18].

For `CCOC(=O)/C(=N\Nc1ccc(-n2c(C)nc3ccccc3c2=O)cc1)C(C)=O`, the GI50 is 32.1 µM (inactive) in [20]; 22.9 µM (inactive) in assay [19]; 26.4 µM (inactive) in assay [1]; 17.5 µM (inactive) in assay [2]; > 100 µM (inactive) in assay [3]; 33.3 µM (inactive) in assay [4]. The GI50 in assay [6] was 29 µM (inactive); in [7], 37.7 µM; in assay [8], 25.6 µM (inactive); in assay [9], > 100 µM (inactive); in assay [10], 61.5 µM (inactive); in [11], 29.8 µM (inactive). The GI50 in [13] was > 100 µM (inactive); in assay [14], > 100 µM (inactive); in [15], 17.7 µM (inactive); in assay [16], 50.5 µM (inactive); in assay [17] it was 2.25 µM (inactive); in assay [18], 24.2 µM (inactive).

For `C/C=C\C(CC(=O)NCC(=O)c1c[nH]c2ccccc12)CC(=O)OC` (stereo unspecified), the GI50 in [19], in [1], in [2], in assay [3], in assay [4] and in [5] was > 100 µM (inactive) each time. Also, the GI50 in [6] was > 100 µM (inactive); in assay [7], greater than 100 µM; in [8] it was > 100 µM (inactive); in assay [10], > 100 µM (inactive); in assay [11], > 100 µM (inactive); in assay [12] it was > 100 µM (inactive). The GI50 in assay [13], in assay [14], in assay [15], in assay [16], in assay [17] and in assay [18] was > 100 µM (inactive) each time.

In the case of `Clc1ccc(-c2ccc(-c3nnc(CCc4nnc(-c5ccc(-c6ccc(Cl)cc6)o5)o4)o3)o2)cc1`, the GI50 in [20] is > 100 µM (inactive); in [19], > 71.9 µM (inactive); in [1] it was > 100 µM (inactive); in [2] it was > 100 µM (inactive); in assay [3], > 100 µM (inactive); in [4], > 100 µM (inactive). Further, the GI50 was 24.8 µM (inactive) in assay [5]; > 100 µM (inactive) in assay [6]; greater than 100 µM in [7]; > 85.3 µM (inactive) in assay [8]; > 100 µM (inactive) in [9]; > 95.7 µM (inactive) in assay [10]. The GI50 in assay [11] was > 100 µM (inactive); in assay [13], 28.3 µM (inactive); in [14], > 43.3 µM (inactive); in assay [15], > 100 µM (inactive); in [16], > 60.5 µM (inactive); in assay [17], > 100 µM (inactive). For the same compound, the GI50 in [18] was > 100 µM (inactive).

`CCON1CC(C(=O)OC)=C(O)C1=O`: the GI50 in assay [19], in assay [1], in assay [2], in assay [3], in assay [4] and in assay [5] was > 100 µM (inactive) each time. Moreover, the GI50 in assay [6] is > 100 µM (inactive); in [7], greater than 100 µM; in [8] it was > 100 µM (inactive); in [10], > 100 µM (inactive); in [11], > 100 µM (inactive); in [12] it was > 100 µM (inactive). The GI50 in assay [13], in [14], in assay [15], in assay [16], in [17] and in assay [18] was > 100 µM (inactive) throughout.

Consider `N#Cc1c(N2CCOCC2)ncn(-c2ccc(Cl)cc2)c1=O`, for which the GI50 in [20], in assay [19], in assay [1], in assay [2], in assay [3] and in assay [4] was > 100 µM (inactive) throughout. The GI50 in assay [6] was > 100 µM (inactive); in assay [7] it was greater than 100 µM; in assay [8], > 100 µM (inactive); in assay [9], > 100 µM (inactive); in assay [10], > 100 µM (inactive); in assay [11], > 100 µM (inactive). In addition, the GI50 in assay [14], in assay [15], in [16], in assay [17] and in assay [18] was > 100 µM (inactive) throughout.
